From patent US10294248B2, “Beta-lactamase inhibitors” (VenatoRx Pharmaceuticals, Inc., priority 2013, dated 2019)
pIC50: −log10 of the molar value.

Columns and labels:
[1] = target: T1, SHV-5 β-lactamase (Class A ESBL) (Klebsiella pneumoniae, UniProt P0A3M1); assay: β-Lactamase inhibition, SHV-5; type: biochemical
T1 construct: made in house; host or cells: E. coli BL21(DE3)
Method in brief: (§1)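 IC50 is the inhibitor level cutting initial substrate hydrolysis rate by 50% relative to no-inhibitor controls, after 15 min enzyme–inhibitor preincubation at 37 °C. KPC-2 read with imipenem at 300 nm, SHV-5 with cefotaxime at 260 nm; enzymes were untagged, E. coli-expressed, chromatographically purified.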

[2] = tested on: E. coli ESBL4 expressing CTX-M-15; assay: Broth microdilution MIC, E. coli ESBL4 CTX-M-15; type: cell-based; conditions: fixed 4 μg/mL ceftazidime; CAMHB, 16-20 hours at 37° C.
Method in brief: (§2)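 CAMHB, CLSI broth microdilution; strains pre-grown 3-5 h. Compound 32–0.25 μg/ml (2-fold series) + fixed β-lactam 4 μg/ml overlay. 37° C, 16-20 h; MIC scored by eye.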

[3] = tested on: K. pneumoniae A-1797 expressing KPC-2 and VIM-4; assay: Broth microdilution MIC, K. pneumoniae A-1797 KPC-2/VIM-4; type: cell-based; conditions: fixed 4 μg/mL meropenem; CAMHB, 16-20 hours at 37° C.
Method in brief: as §2

[4] = tested on: S. aureus MSSA-7 producing penicillinase PC-1; assay: Broth microdilution MIC, S. aureus MSSA-7 PC-1; type: cell-based; conditions: fixed 4 μg/mL piperacillin; CAMHB, 16-20 hours at 37° C.
Method in brief: as §2

[5] = tested on: E. cloacae 144200 expressing Class C P99 AmpC; assay: Broth microdilution MIC, E. cloacae 144200 p99 AmpC; type: cell-based; conditions: fixed 4 μg/mL ceftazidime; CAMHB, 16-20 hours at 37° C.
Method in brief: as §2

[6] = target: T2, OXA-1 β-lactamase (Class D oxacillinase) (Escherichia coli, UniProt P13661); assay: β-Lactamase inhibition, OXA-1; type: biochemical; conditions: nitrocefin 100 μM, 486 nm; 15 min preincubation at 37° C., PBS pH 7.4
T2 construct: made in house; host or cells: E. coli BL21(DE3)
T2 sequence (P13661 26-276): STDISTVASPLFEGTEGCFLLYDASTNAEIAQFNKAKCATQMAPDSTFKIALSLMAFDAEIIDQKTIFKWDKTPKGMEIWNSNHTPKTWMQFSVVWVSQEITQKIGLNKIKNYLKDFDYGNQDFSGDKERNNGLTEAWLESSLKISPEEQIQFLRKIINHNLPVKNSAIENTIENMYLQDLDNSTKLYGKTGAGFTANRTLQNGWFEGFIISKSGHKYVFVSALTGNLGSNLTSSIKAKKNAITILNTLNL
Method in brief: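 Compounds are mixed with purified, untagged recombinant β-lactamase and held 15 min at 37 °C. Substrate is then added: nitrocefin (100 μM final) for OXA-1, imipenem for KPC-2, cefotaxime for SHV-5. Absorbance is followed immediately, and percent inhibition per concentration gives the IC50.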

[7] = target: T3, KPC-2 β-lactamase (Class A carbapenemase) (Klebsiella pneumoniae, UniProt Q9F663); assay: β-Lactamase inhibition, KPC-2; type: biochemical; conditions: imipenem substrate, 300 nm; 15 min preincubation at 37° C., PBS pH 7.4
T3 construct: made in house; host or cells: E. coli BL21(DE3)
T3 sequence (Q9F663 25-293, looked up): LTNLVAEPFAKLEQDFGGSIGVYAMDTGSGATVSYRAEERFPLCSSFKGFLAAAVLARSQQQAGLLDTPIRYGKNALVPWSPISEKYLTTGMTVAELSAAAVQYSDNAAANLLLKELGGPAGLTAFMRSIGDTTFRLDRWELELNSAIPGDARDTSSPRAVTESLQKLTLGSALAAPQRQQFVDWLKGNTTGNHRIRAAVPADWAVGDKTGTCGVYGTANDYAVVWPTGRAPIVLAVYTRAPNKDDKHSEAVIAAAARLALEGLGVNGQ
Method in brief: as §1

[8] = tested on: K. pneumoniae 156319 expressing KPC-3; assay: Broth microdilution MIC, K. pneumoniae 156319 KPC-3; type: cell-based; conditions: fixed 4 μg/mL meropenem; CAMHB, 16-20 hours at 37° C.
Method in brief: as §2

[9] = tested on: P. aeruginosa Ps296 expressing VIM-2; assay: Broth microdilution MIC, P. aeruginosa Ps296 VIM-2; type: cell-based; conditions: fixed 4 μg/mL meropenem; CAMHB, 16-20 hours at 37° C.
Method in brief: as §2

[10] = target: T4, p99 AmpC β-lactamase (Class C) (Enterobacter cloacae, UniProt P05364); assay: β-Lactamase inhibition, p99 AmpC; type: biochemical
T4 construct: made in house; host or cells: E. coli BL21(DE3)
T4 sequence (P05364 21-381): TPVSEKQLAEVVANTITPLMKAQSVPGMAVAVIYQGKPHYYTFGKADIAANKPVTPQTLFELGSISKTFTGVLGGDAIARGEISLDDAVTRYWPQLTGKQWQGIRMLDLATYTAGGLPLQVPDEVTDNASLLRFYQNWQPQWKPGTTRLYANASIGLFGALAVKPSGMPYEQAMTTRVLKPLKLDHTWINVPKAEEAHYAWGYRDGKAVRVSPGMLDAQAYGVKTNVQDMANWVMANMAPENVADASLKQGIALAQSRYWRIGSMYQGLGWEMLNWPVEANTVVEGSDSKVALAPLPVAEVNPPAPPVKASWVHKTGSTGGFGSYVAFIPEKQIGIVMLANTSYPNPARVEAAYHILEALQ

[11] = target: T5, VIM-2 metallo-β-lactamase (Class B) (Pseudomonas aeruginosa, UniProt Q9K2N0); assay: β-Lactamase inhibition, VIM-2; type: biochemical; conditions: nitrocefin 100 μM, 486 nm; 15 min preincubation at 37° C., PBS pH 7.4
T5 construct: made in house; host or cells: E. coli BL21(DE3)
Method in brief: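 Enzyme + inhibitor, 37 °C, 15 min; nitrocefin 100 μM final; A486 read for 10 min. % inhibition vs no-inhibitor wells per concentration; IC50 = concentration halving initial hydrolysis rate.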

T1 sequence (P0A3M1 22-286): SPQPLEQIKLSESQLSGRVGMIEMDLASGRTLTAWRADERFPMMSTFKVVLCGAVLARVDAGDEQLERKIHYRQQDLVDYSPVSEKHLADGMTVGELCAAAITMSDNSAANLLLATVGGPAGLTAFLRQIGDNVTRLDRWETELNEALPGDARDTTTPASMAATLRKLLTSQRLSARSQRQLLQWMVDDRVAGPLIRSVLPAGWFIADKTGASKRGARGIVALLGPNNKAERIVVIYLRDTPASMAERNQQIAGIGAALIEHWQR

NCCC(=O)NC1CCN(CC(=O)N[C@H]2Cc3cccc(C(=O)O)c3OB2O)CC1 [Example 27, 3-{2-[4-(3-Amino-propionylamino)-piperidin-1-yl]-acetylamino}-2-hydroxy-3,4-dihydro-2H-benzo[e][1,2]oxaborinine-8-carboxylic acid]
pIC50 [1]: 6.00 to 7.00
MIC of example compound in presence of fixed β-lactam: Fixed CAZ, E. coli ESBL4 CTX-M-15 [2]: C (the MIC in the presence of <4 μg/mL of a β-lactamase inhibitor)
MIC of example compound in presence of fixed β-lactam: Fixed Mero, K. P. A-1797 KPC-2 VIM-4 [3]: B (the MIC in the presence of between 8 and 32 μg/mL of a β-lactamase inhibitor)
MIC of example compound in presence of fixed β-lactam: Fixed Pip, S. aureus MSSA-7 PC-1 [4]: A (an MIC of the fixed β-lactam antibiotic in the presence of >32 μg/mL of a β-lactamase inhibitor)
MIC of example compound in presence of fixed β-lactam: Fixed CAZ, E. cl. 144200 p99 AmpC [5]: B (the MIC in the presence of between 8 and 32 μg/mL of a β-lactamase inhibitor)
pIC50 [6]: 6.00 to 7.00
pIC50 [7]: 6.00 to 7.00
MIC of example compound in presence of fixed β-lactam: Fixed Mero, K. P. 156319 KPC-3 [8]: B (the MIC in the presence of between 8 and 32 μg/mL of a β-lactamase inhibitor)
MIC of example compound in presence of fixed β-lactam: Fixed Mero, P. aerug. Ps296 VIM-2 [9]: B (the MIC in the presence of between 8 and 32 μg/mL of a β-lactamase inhibitor)
pIC50 [10]: > 7.00
pIC50 [11]: 4.00 to 5.00

NC1CCN(CC(=O)N[C@H]2Cc3cccc(C(=O)O)c3OB2O)CC1N (some centres unmarked) [Example 28, 3-[2-(3,4-Diamino-piperidin-1-yl)-acetylamino]-2-hydroxy-3,4-dihydro-2H-benzo[e][1,2]oxaborinine-8-carboxylic acid]
pIC50 [1]: 4.00 to 5.00
MIC of example compound in presence of fixed β-lactam: Fixed CAZ, E. coli ESBL4 CTX-M-15 [2]: C (the MIC in the presence of <4 μg/mL of a β-lactamase inhibitor)
MIC of example compound in presence of fixed β-lactam: Fixed Mero, K. P. A-1797 KPC-2 VIM-4 [3]: B (the MIC in the presence of between 8 and 32 μg/mL of a β-lactamase inhibitor)
MIC of example compound in presence of fixed β-lactam: Fixed Pip, S. aureus MSSA-7 PC-1 [4]: C (the MIC in the presence of <4 μg/mL of a β-lactamase inhibitor)
MIC of example compound in presence of fixed β-lactam: Fixed CAZ, E. cl. 144200 p99 AmpC [5]: C (the MIC in the presence of <4 μg/mL of a β-lactamase inhibitor)
pIC50 [6]: > 7.00
pIC50 [7]: > 7.00
MIC of example compound in presence of fixed β-lactam: Fixed Mero, K. P. 156319 KPC-3 [8]: C (the MIC in the presence of <4 μg/mL of a β-lactamase inhibitor)
MIC of example compound in presence of fixed β-lactam: Fixed Mero, P. aerug. Ps296 VIM-2 [9]: C (the MIC in the presence of <4 μg/mL of a β-lactamase inhibitor)
pIC50 [10]: > 7.00
pIC50 [11]: 4.00 to 5.00

NCC1CN(CC(=O)N[C@H]2Cc3cccc(C(=O)O)c3OB2O)CCC1N (some centres unmarked) [Example 29, 3-[2-(4-Amino-3-aminomethyl-piperidin-1-yl)-acetylamino]-2-hydroxy-3,4-dihydro-2H-benzo[e][1,2]oxaborinine-8-carboxylic acid]
pIC50 [1]: 5.00 to 6.00
MIC of example compound in presence of fixed β-lactam: Fixed CAZ, E. coli ESBL4 CTX-M-15 [2]: C (the MIC in the presence of <4 μg/mL of a β-lactamase inhibitor)
MIC of example compound in presence of fixed β-lactam: Fixed Mero, K. P. A-1797 KPC-2 VIM-4 [3]: B (the MIC in the presence of between 8 and 32 μg/mL of a β-lactamase inhibitor)
MIC of example compound in presence of fixed β-lactam: Fixed Pip, S. aureus MSSA-7 PC-1 [4]: C (the MIC in the presence of <4 μg/mL of a β-lactamase inhibitor)
MIC of example compound in presence of fixed β-lactam: Fixed CAZ, E. cl. 144200 p99 AmpC [5]: C (the MIC in the presence of <4 μg/mL of a β-lactamase inhibitor)
pIC50 [6]: 6.00 to 7.00
pIC50 [7]: 6.00 to 7.00
MIC of example compound in presence of fixed β-lactam: Fixed Mero, K. P. 156319 KPC-3 [8]: C (the MIC in the presence of <4 μg/mL of a β-lactamase inhibitor)
MIC of example compound in presence of fixed β-lactam: Fixed Mero, P. aerug. Ps296 VIM-2 [9]: C (the MIC in the presence of <4 μg/mL of a β-lactamase inhibitor)
pIC50 [10]: 6.00 to 7.00
pIC50 [11]: 4.00 to 5.00

NCCNC1CCN(CC(=O)N[C@H]2Cc3cccc(C(=O)O)c3OB2O)CC1 [Example 30, 3-{2-[4-(2-Amino-ethylamino)-piperidin-1-yl]-acetylamino}-2-hydroxy-3,4-dihydro-2H-benzo[e][1,2]oxaborinine-8-carboxylic acid]
pIC50 [1]: > 7.00
MIC of example compound in presence of fixed β-lactam: Fixed CAZ, E. coli ESBL4 CTX-M-15 [2]: C (the MIC in the presence of <4 μg/mL of a β-lactamase inhibitor)
MIC of example compound in presence of fixed β-lactam: Fixed Mero, K. P. A-1797 KPC-2 VIM-4 [3]: A (an MIC of the fixed β-lactam antibiotic in the presence of >32 μg/mL of a β-lactamase inhibitor)
MIC of example compound in presence of fixed β-lactam: Fixed Pip, S. aureus MSSA-7 PC-1 [4]: A (an MIC of the fixed β-lactam antibiotic in the presence of >32 μg/mL of a β-lactamase inhibitor)
MIC of example compound in presence of fixed β-lactam: Fixed CAZ, E. cl. 144200 p99 AmpC [5]: C (the MIC in the presence of <4 μg/mL of a β-lactamase inhibitor)
pIC50 [6]: > 7.00
pIC50 [7]: > 7.00
MIC of example compound in presence of fixed β-lactam: Fixed Mero, K. P. 156319 KPC-3 [8]: C (the MIC in the presence of <4 μg/mL of a β-lactamase inhibitor)
MIC of example compound in presence of fixed β-lactam: Fixed Mero, P. aerug. Ps296 VIM-2 [9]: B (the MIC in the presence of between 8 and 32 μg/mL of a β-lactamase inhibitor)
pIC50 [10]: > 7.00
pIC50 [11]: 5.00 to 6.00
